SMILES strings stand for the structures. The source made the active and inactive calls.

Data set [1] is described as follows: Trypanosoma cruzi growth suppression in host cells – NIH3T3 host cells, beta-gal luminescence, confirmation (AID 2044).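 Also: intracellular parasites grown in NIH/3T3 mouse fibroblasts as host cells; luminescent beta-galactosidase reporter signal from transgenic T. cruzi replicating inside host cells; inhibitors lower the luminescence signal.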 The data set is classed as functional, cell-based.
Data set [2] is described as follows: viability loss in CEM21 cells – cell-based, CellTiter-Glo luminescence, cherry-picked, cytotoxicity control for viral fusion inhibitor project, dose response (AID 652042).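 Also: potency for signal decrease meaning cytotoxicity.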 The format is functional.
The next data set has as its system INS1. Briefly: INS-1E survival protection against cytokine death – cell-based, luminescence, retest, dose response (AID 449756).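 Also: cell death triggered by IL-1 beta plus TNF-alpha plus IFN-gamma mixture; protective hits raise ATP signal compared with cytokine alone wells.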 The format is functional. The note with it: Rattus norvegicus.
The nature of data set [3]: cells. The format is functional, cell-based.
The nature of data set [4]: cells. The format is functional, cell-based. This is another data set of the same source.
Data set [5] is described as follows: NIH3T3 cell viability loss – ATP luminescence, mouse fibroblasts, counter-screen, dose response (AID 2010).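 Also: cells exposed to compound for about 90 hours before reading.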 The format is functional, cell-based. A general note: Counterscreens check selectivity or assay interference.
Data set [6] in a line: HIV-1 AD8 envelope cell-cell fusion blockers – cherry-pick, dose response (AID 652062).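 Also: luciferase signal from cell-cell fusion driven by HIV-1 clade B AD8 Env; potency is for inhibitors of fusion seen as a drop in luminescence.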 The data set is classed as functional, cell-based.
The next data set has as its target T1, Cytochrome P450 1A2 (Homo sapiens, UniProt P05177).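 Also: PubChem cytochrome P450 panel assay, CYP1A2 panel member.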
T1 sequence (P05177 whole entry): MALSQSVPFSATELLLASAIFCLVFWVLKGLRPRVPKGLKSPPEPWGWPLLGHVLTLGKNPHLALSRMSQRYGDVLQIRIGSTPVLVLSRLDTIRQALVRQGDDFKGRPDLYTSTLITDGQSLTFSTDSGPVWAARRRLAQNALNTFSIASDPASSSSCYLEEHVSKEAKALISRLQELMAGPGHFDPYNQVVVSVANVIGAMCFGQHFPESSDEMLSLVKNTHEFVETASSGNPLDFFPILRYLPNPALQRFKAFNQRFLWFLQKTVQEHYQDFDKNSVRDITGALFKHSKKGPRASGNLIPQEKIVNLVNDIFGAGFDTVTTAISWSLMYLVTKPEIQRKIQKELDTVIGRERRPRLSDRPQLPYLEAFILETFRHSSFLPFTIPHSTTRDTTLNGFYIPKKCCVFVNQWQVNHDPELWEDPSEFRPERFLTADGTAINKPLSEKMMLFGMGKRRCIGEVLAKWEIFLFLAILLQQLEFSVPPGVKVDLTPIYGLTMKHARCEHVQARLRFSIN

The target of another data set is Cytochrome P450 2C9 (Homo sapiens, UniProt P11712).
Data set [7] is described as follows: blockers of HIV-1 envelope-mediated cell-cell fusion – cherry-pick, dose response (AID 652057). The data set is classed as functional, cell-based.
Data set [8] is described as follows: blockers of HIV-1 ZM109 envelope-driven cell-cell fusion – HeLa effector, CEM target cells, luciferase, cherry-pick, dose response (AID 652058).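 Also: luciferase signal from HIV-1 Env mediated cell-cell fusion of effector and target cells.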 The data set is classed as functional, cell-based.
The nature of data set [9]: non-specific 3'UTR reporter inhibition in Clone20-Shn3RL – cell-based, Renilla luciferase, cherry-picked, counter-screen for Shn3 inhibitor project, dose response (AID 624133). The data set is classed as functional.
Another data set has as its target Paired box protein Pax-8 (Homo sapiens, UniProt Q06710). Description: PAX8 transcriptional activity inhibition in RMG-I – RMG-I cells, luciferase, cherry-pick, dose response (AID 687027).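 Also: luciferase reporter driven by Pax8 target thyroperoxidase promoter measured by SteadyGlo luminescence.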 The format is functional, cell-based.
A short description of data set [10]: reduction of Shn3 3'UTR-driven luciferase in osteoblasts – cell-based, Clone20 osteoblasts, firefly luciferase, cherry-picked, dose response (AID 624132).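 Also: firefly luciferase luminescence from reporter carrying the Shn3 3'UTR in osteoblasts.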 The format is functional.
The target of another data set is T2, Protein skinhead-1 (Caenorhabditis elegans, UniProt P34707).
T2 sequence (P34707 whole entry): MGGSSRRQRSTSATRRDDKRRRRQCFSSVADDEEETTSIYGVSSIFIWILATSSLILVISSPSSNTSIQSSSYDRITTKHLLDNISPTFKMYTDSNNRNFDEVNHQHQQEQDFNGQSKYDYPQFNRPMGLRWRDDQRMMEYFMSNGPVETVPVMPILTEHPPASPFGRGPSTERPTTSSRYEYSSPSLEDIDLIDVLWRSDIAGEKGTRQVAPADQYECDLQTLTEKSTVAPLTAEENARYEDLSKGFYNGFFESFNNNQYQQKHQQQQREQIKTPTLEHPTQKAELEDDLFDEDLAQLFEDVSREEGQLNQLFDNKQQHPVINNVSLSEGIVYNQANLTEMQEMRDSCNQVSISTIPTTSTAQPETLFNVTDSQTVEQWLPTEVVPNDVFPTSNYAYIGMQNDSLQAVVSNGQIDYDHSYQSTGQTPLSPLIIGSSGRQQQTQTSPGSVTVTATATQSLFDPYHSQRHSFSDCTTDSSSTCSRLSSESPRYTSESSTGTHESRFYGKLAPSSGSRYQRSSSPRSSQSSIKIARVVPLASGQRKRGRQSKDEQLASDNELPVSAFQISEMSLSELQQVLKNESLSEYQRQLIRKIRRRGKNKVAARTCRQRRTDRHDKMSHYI
The data set is classed as functional.

The target in the next data set is Cytochrome P450 2C19 (Homo sapiens, UniProt P33261). Description: Cytochrome panel assay with activity outcomes. Panel member name: p450-cyp2c19 Compounds with AC50 equal or less than 10 uM are considered active. The format is functional. The note with it: read-out: AC50.
A short description of data set [11]: HEK-293T viability loss after treatment – luminescence, T-cell screen hits, cytotoxicity control for TCR NF-kB inhibitor project, dose response (AID 489026).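 Also: cells exposed to compound about 14 hours before the viability readout.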 The data set is classed as functional, cell-based.
The nature of data set [12]: loss of viability in HepG2 cells – cell-based, CellTiter-Glo, cherry-picked, cytotoxicity control for Shn3 inhibitor project, dose response (AID 624134). The format is functional. For orientation: In ATP-based viability assays light output follows the ATP content of the culture.
The nature of data set [13]: off-target signal loss in HeLa-CEM21 co-culture – HeLa F-luc CTL cells, cherry-picked, counter-screen for HIV-1 Env fusion inhibitor project, dose response (AID 652040).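 Also: potency for signal decrease marking cytotoxic or nonspecific inhibition.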 The format is functional, cell-based.
The target of data set [14] is T3, Short transient receptor potential channel 4 (Mus musculus, UniProt Q9QUQ5).
T3 sequence (Q9QUQ5 whole entry): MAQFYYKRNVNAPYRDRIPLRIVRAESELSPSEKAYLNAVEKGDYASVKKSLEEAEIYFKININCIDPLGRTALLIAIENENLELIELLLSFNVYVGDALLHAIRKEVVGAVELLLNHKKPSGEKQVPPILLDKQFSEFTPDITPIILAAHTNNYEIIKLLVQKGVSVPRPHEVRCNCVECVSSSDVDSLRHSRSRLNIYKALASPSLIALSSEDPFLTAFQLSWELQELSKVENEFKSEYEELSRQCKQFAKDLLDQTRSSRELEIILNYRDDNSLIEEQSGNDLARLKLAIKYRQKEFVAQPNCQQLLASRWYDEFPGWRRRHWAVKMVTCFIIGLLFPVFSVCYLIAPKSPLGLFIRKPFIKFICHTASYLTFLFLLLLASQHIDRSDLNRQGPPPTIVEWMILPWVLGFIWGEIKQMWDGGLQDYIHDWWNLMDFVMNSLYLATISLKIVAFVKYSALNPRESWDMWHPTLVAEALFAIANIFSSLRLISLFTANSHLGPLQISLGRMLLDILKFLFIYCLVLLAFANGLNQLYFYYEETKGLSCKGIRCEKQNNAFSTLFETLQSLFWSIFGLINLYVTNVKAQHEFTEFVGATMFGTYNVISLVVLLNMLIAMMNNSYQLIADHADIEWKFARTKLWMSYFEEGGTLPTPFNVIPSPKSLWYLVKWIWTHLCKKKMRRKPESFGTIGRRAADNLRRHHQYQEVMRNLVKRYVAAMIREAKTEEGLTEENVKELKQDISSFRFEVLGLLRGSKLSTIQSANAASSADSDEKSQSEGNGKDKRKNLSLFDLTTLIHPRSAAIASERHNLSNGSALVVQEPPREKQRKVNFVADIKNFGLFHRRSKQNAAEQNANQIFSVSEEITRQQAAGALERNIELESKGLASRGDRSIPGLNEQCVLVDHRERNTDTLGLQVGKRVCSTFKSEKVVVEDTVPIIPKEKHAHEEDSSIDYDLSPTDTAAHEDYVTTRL
Briefly: calcium entry via TRPC4 opening agents – cell-based, HEK293 TRPC4/mu-opioid, Fluo-4 calcium, dose response (AID 434937). The format is functional.

Another data set addresses Fatty acid synthase (Homo sapiens, UniProt P49327). Briefly: inhibition of human FAS-TE enzyme activity – biochemical, kinetic fluorescence intensity, dose response (AID 624326).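 Also: rate of fluorescence rise from hydrolysis of a fluorogenic O-methyl fluorescein ester substrate.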 The data set is classed as functional.

Chain of Cytochrome P450 2C9 (P11712 whole entry, the tested form may be a part): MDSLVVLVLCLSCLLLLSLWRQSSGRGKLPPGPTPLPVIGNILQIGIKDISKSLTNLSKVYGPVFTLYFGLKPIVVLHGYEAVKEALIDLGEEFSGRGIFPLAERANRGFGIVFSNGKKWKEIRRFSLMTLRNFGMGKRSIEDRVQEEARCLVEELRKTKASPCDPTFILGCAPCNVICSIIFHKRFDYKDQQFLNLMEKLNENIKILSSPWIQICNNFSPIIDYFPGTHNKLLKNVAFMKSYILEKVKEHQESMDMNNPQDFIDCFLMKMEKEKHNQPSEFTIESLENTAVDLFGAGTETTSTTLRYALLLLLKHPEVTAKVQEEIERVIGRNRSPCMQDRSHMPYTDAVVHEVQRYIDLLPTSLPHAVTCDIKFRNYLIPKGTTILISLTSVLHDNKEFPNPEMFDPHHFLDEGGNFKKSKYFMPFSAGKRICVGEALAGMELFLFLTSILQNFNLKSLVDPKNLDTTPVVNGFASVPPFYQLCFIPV
Chain of Fatty acid synthase (P49327 whole entry): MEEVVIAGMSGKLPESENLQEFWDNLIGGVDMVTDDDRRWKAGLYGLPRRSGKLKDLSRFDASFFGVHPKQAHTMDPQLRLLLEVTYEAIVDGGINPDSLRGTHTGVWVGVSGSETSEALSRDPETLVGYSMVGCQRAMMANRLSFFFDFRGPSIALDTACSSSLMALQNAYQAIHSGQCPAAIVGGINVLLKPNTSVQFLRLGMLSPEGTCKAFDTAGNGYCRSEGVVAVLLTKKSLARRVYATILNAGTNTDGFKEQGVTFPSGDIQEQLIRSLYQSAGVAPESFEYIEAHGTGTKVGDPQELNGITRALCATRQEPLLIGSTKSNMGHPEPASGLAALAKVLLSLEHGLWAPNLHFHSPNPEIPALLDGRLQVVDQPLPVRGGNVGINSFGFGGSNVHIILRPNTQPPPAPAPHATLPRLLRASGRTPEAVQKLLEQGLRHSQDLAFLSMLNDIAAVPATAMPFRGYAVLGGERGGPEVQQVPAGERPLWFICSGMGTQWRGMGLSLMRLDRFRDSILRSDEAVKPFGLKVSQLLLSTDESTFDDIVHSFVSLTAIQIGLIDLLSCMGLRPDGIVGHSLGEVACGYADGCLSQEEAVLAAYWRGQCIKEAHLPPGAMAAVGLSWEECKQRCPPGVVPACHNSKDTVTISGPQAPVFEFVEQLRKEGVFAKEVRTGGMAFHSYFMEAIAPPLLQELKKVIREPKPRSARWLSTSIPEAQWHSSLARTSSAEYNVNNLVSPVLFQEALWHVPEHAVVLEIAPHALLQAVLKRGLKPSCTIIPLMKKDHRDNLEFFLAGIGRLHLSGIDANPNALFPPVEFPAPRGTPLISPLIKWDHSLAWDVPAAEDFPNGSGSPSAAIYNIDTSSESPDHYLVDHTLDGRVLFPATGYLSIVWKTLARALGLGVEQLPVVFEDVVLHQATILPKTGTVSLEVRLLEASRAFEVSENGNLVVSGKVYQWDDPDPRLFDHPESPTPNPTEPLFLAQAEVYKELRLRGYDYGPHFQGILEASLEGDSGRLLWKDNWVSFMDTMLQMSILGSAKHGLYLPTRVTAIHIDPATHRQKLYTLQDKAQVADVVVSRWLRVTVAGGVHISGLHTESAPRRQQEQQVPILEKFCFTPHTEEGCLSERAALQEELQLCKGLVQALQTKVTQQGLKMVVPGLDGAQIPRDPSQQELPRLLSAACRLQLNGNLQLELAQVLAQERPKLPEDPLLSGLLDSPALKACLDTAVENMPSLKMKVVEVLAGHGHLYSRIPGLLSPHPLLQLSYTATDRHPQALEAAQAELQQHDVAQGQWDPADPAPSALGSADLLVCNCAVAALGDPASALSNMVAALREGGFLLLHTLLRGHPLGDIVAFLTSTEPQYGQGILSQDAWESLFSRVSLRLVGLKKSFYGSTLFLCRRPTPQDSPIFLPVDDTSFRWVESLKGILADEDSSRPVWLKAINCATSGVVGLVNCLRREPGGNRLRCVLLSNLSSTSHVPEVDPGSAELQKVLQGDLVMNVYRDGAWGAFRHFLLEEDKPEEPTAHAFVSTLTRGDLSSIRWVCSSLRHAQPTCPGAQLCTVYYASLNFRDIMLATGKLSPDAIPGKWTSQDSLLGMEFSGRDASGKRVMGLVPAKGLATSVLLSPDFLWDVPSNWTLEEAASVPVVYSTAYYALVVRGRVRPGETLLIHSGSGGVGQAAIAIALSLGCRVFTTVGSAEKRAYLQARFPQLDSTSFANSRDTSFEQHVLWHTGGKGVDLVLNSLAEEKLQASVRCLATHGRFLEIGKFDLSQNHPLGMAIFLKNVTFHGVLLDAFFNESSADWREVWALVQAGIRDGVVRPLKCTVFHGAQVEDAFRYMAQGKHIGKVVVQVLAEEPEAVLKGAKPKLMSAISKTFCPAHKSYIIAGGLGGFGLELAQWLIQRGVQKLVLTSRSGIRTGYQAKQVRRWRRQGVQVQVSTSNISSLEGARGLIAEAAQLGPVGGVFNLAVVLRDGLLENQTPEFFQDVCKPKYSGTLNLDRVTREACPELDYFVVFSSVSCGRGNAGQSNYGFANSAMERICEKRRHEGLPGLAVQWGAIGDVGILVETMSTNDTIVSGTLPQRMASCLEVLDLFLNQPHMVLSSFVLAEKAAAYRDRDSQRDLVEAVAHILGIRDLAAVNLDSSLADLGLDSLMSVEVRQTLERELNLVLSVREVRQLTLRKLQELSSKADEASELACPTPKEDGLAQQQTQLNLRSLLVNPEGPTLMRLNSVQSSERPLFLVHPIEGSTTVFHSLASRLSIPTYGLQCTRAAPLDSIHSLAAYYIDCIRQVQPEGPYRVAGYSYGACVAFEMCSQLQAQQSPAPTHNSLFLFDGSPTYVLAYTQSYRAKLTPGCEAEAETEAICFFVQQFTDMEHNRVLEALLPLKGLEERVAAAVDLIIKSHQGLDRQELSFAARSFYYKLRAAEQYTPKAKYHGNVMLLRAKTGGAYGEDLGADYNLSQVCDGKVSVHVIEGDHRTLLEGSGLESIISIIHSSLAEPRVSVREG
Chain of Paired box protein Pax-8 (Q06710 whole entry): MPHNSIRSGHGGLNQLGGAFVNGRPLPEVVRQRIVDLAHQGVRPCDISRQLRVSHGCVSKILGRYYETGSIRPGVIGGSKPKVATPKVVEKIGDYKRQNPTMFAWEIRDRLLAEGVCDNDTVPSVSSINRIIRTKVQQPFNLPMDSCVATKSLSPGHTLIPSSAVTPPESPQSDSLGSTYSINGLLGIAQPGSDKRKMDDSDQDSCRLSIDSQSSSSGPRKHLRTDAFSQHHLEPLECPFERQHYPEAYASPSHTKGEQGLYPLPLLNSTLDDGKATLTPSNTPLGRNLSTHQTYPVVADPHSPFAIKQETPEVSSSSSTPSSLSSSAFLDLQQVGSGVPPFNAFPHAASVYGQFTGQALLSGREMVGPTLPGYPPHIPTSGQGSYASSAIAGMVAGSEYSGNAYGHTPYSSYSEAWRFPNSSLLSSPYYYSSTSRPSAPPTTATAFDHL
Chain of Cytochrome P450 2C19 (P33261 whole entry): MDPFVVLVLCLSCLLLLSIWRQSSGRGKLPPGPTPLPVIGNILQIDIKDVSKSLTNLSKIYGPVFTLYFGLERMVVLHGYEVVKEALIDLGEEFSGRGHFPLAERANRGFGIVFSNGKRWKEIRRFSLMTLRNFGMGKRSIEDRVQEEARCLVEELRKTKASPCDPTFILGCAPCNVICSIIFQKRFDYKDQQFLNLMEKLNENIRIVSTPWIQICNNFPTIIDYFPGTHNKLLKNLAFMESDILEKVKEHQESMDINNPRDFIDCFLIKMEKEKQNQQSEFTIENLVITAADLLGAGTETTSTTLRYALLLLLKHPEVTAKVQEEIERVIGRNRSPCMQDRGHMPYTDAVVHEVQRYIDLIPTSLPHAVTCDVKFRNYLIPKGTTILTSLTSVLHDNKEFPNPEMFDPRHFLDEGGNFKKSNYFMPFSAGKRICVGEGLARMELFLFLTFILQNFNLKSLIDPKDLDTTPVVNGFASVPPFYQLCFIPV

Regarding `COc1ccc(/C(C)=N/NC(=O)c2cccc(S(=O)(=O)N3CCCC3)c2)c(O)c1`, the EC50 in [1] was 1.05 µM (active); in the data set “cells [3]”, 11.6 µM (active); in “cells [4]”, > 350 µM (not active); in data set [5] it was 3.07 µM (active). Further, the figures for the AC50 (in [2]; in the data set on INS1; in data set [6]) were 3.55 µM (active), 0.631 µM (active) and 17.4 µM (active), respectively.

Consider `CC(C)CCN1CC(C(=O)N2CCN(c3ccc(F)cc3)CC2)CC1=O` (centres undefined), for which the AC50 on Cytochrome P450 1A2 was 0.251 µM (inconclusive); at Cytochrome P450 2C9, “inconclusive”.

For `C[C@H]1CN([C@@H](C)CO)C(=O)Cc2cc(NC(=O)Nc3cccc4ccccc34)ccc2O[C@H]1CN(C)S(=O)(=O)c1ccccc1`, the AC50 is < 0.26 µM (active) in data set [7], 33.8 µM (active) in data set [2], < 0.26 µM (active) in data set [8] and 1.07 µM (active) in data set [6].

With `COC(=O)C12OCC34C(CC5C(C)=C(O)C(=O)CC5(C)C3C(O)C1O)OC(=O)C(OC(=O)/C=C(\C)C(C)C)C24` (centres undefined), the AC50 (in [9]; at Paired box protein Pax-8; in data set [10]) was < 0.26 µM (active) throughout. Besides, the IC50 at Protein skinhead-1 was 42.7 µM (active).

For `O=C(CCS(=O)(=O)c1cccc2nsnc12)N1CCN(c2ccccc2F)CC1`, the IC50 on Protein skinhead-1 is > 100 µM (inactive).

On to `COCCCNC(=O)/C=C/c1cccc(Cl)c1`, for which the values for the AC50 on Cytochrome P450 2C19 and on Cytochrome P450 2C9 were 15.8 µM (inconclusive) and “inconclusive”, respectively.

Turning to `O=C(Nc1ccc(N2CCN(C(=O)c3ccc(Cl)cc3)CC2)cc1)c1ccc2c(c1)OCCO2`, the AC50 in data set [9] is 7.89 µM (active); in [7], 32.5 µM (active); in data set [2], 47.7 µM (active); in data set [10], 2.54 µM (active); in [8], 0.791 µM (active); in [6], 6.8 µM (active). For the same compound, the AC50 in [12] is 1.96 µM (active). The IC50 in data set [11] was > 80 µM (inactive).

On to `CCCC(=O)N1CCN(c2ccc(NC(=O)c3cc4ccccc4o3)cc2)CC1`, for which the IC50 on Protein skinhead-1 is > 100 µM (inactive).

Turning to `CCN(CC)S(=O)(=O)c1cccc(NC(=O)c2ccc(-n3nc(C)cc3C)cc2)c1`, the AC50 in [2] was 49.7 µM (active); in data set [6] it was 15.8 µM (active); in data set [13], 10.7 µM (active).

As to `CC1(C)CC(CCNCc2ccc3c(c2)OCO3)(Cc2ccccc2)CCO1` (centres undefined), in data set [14], the EC50 is 6.68 µM (active).

Turning to `NCCNC(=O)c1c(NC(=O)c2ccccc2)sc2c1CCCC2`, the EC50 in data set [14] is 6.68 µM (active).

For `CCCN(CCC)CCCNC(=O)C1CCC(CNS(=O)(=O)c2cccc3nsnc23)CC1` (centres undefined), the EC50 in data set [14] is 0.531 µM (active).

For the compound `CCn1nccc1C(=O)Nc1ccc(Cl)c(Cl)c1`, the IC50 on Protein skinhead-1 is 43.4 µM (active).

As for `C[C@H](CO)N1C[C@H](C)[C@H](CN(C)S(=O)(=O)c2cccc(C#N)c2)OCc2ccccc2-c2c(n(C)c3ccccc23)C1=O`, the AC50 in [7] is 0.726 µM (active); in data set [2], 46.1 µM (active); in data set [8] it was 3.13 µM (active); in data set [6] it was 10.3 µM (active).

In the case of `CN1CCN(c2ccc(NC(=O)COc3cccc4ccccc34)cc2)CC1`, the EC50 in [14] was 2.99 µM (active).

Regarding `Cc1ccc(C(=O)NC(=S)Nc2ccccc2C(F)(F)F)c(C)c1`, the IC50 at Protein skinhead-1 was > 100 µM (inactive).

Consider `O=C(C[C@H]1C[C@H](C(=O)N2CCOCC2)[C@@]2(CCC3CCCC3)c3[nH]c4cc(-c5ccco5)ccc4c3CCN2C1=O)NCCc1ccccn1`, for which, at Fatty acid synthase, the IC50 was 7.01 µM (active).

Regarding `O=C(Nc1ccccc1)c1cc(-c2ccccc2Cl)no1`, the AC50 entry at Cytochrome P450 2C9 is “inconclusive”.

As a reminder, the EC50 is the midpoint of the concentration-response curve. As a reminder, the AC50 is the concentration at which the activity in the assay is half-maximal. As a reminder, the IC50 is the point on the concentration scale where inhibition reaches its midpoint.

Values taken from ChEMBL document CHEMBL1201862, “PubChem BioAssay data set” (2004).
